Laboratory results: ChEMBL document CHEMBL1201862, “PubChem BioAssay data set” (2004)
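These data come from cells grown in 96-well plates and exposed to compound for 48 hours at five concentrations. GI50 marks 50% less growth.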 Active and inactive are the calls of the source. Cut-off read from the data, not from the text of the source: active = GI50 up to about 1.1 µM and inactive = higher.

Tests used:
Assay in all cases: DTP human tumour cell line panel, 48 h
A498 = system: A498
A549 = system: A549
CAKI-1 = system: CAKI-1
CCRF-CEM = system: CCRF-CEM
COLO 205 = system: COLO 205
DLD-1 = system: DLD-1
DMS-273 = system: DMS-273
EKVX = system: EKVX
HCC 2998 = system: HCC 2998
HCT-116 = system: HCT-116
HCT-15 = system: HCT-15
HL-60 = system: HL-60
HOP-18 = system: HOP-18
HOP-62 = system: HOP-62
HOP-92 = system: HOP-92
HT-29 = system: HT-29
IGROV-1 = system: IGROV-1
K562 = system: K562
KM-20L2 = system: KM-20L2
KM12 = system: KM12
LOX IMVI = system: LOX IMVI
M19-MEL = system: M19-MEL
MCF7 = system: MCF7
MOLT-4 = system: MOLT-4
Malme-3M = system: Malme-3M
NCI-H23 = system: NCI-H23
NCI-H460 = system: NCI-H460
NCI-H522 = system: NCI-H522
NCI/ADR-RES = system: NCI/ADR-RES
OVCAR-3 = system: OVCAR-3
OVCAR-4 = system: OVCAR-4
OVCAR-5 = system: OVCAR-5
OVCAR-8 = system: OVCAR-8
RPMI-8226 = system: RPMI-8226
RXF 393 = system: RXF 393
SF-268 = system: SF-268
SF-295 = system: SF-295
SF-539 = system: SF-539
SK-MEL-28 = system: SK-MEL-28
SK-MEL-2 = system: SK-MEL-2
SK-MEL-5 = system: SK-MEL-5
SK-OV-3 = system: SK-OV-3
SN12C = system: SN12C
SNB-19 = system: SNB-19
SNB-75 = system: SNB-75
SNB-78 = system: SNB-78
SW-620 = system: SW-620
U-251 = system: U-251
UACC-257 = system: UACC-257
UACC-62 = system: UACC-62
UO-31 = system: UO-31
XF498 = system: XF498
786-0 = system: 786-0
ACHN = system: ACHN
LXFL 529 = system: LXFL 529
M14 = system: M14
NCI-H226 = system: NCI-H226
SR = system: SR

Measured: GI50

O=C(O)c1ccccc1/N=C/c1ccc(N(CCCl)CCCl)cc1
inactive: A498 > 40.5 µM | A549 > 100 µM | CAKI-1 9.75 µM | CCRF-CEM > 80.7 µM | COLO 205 > 100 µM | DLD-1 > 100 µM | DMS-273 81.1 µM | EKVX 64.1 µM | HCC 2998 > 100 µM | HCT-116 > 100 µM | HL-60 29.4 µM | HOP-18 > 100 µM | HOP-62 1.31 µM | HOP-92 > 100 µM | HT-29 > 100 µM | IGROV-1 > 100 µM | K562 > 100 µM | KM-20L2 > 100 µM | KM12 > 100 µM | LOX IMVI > 100 µM | M19-MEL > 100 µM | MCF7 > 84.7 µM | MOLT-4 36.6 µM | Malme-3M > 100 µM | NCI-H23 47.6 µM | NCI-H460 31.5 µM | NCI-H522 > 100 µM | NCI/ADR-RES > 100 µM | OVCAR-3 > 100 µM | OVCAR-4 > 100 µM | OVCAR-5 > 100 µM | OVCAR-8 > 100 µM | RPMI-8226 > 100 µM | RXF 393 > 48.3 µM | SF-268 > 72.4 µM | SF-295 > 100 µM | SF-539 > 66.5 µM | SK-MEL-28 > 100 µM | SK-MEL-2 > 100 µM | SK-MEL-5 > 100 µM | SK-OV-3 > 91.2 µM | SN12C > 85.5 µM | SNB-19 > 100 µM | SNB-75 > 100 µM | SNB-78 > 82.8 µM | SW-620 > 100 µM | U-251 78 µM | UACC-257 > 78 µM | UACC-62 5.74 µM | UO-31 > 65.2 µM
> 100 µM: HCT-15
active: XF498 0.01 µM

NC(=O)c1ccccc1NC(=O)C(=O)C(C(=O)c1ccc(Cl)c(Cl)c1)C1OC(=O)c2ccccc21 (configuration not stated)
inactive: 786-0 48.8 µM | A498 31.8 µM | A549 43.1 µM | ACHN 59.3 µM | CAKI-1 52.6 µM | CCRF-CEM > 100 µM | COLO 205 41.8 µM | DLD-1 43.3 µM | DMS-273 36.2 µM | EKVX > 100 µM | HCC 2998 49.8 µM | HCT-116 18.7 µM | HL-60 > 100 µM | HOP-18 33.5 µM | HOP-62 43.8 µM | HOP-92 42.8 µM | HT-29 34.8 µM | IGROV-1 60.1 µM | K562 > 100 µM | KM-20L2 46.9 µM | KM12 60.4 µM | LXFL 529 29.9 µM | M14 61.1 µM | MOLT-4 > 100 µM | Malme-3M 14.5 µM | NCI-H226 14.9 µM | NCI-H23 39.5 µM | OVCAR-3 35.1 µM | OVCAR-4 43.3 µM | OVCAR-5 > 100 µM | OVCAR-8 39.6 µM | RPMI-8226 69.2 µM | RXF 393 17 µM | SF-268 34.4 µM | SN12C 44.4 µM | SNB-19 45 µM | SNB-75 23.4 µM | SNB-78 39.2 µM | SR 95.9 µM | SW-620 46.5 µM | U-251 30.8 µM | UACC-257 62.4 µM | UACC-62 30.8 µM | XF498 > 100 µM
46.5 µM: HCT-15
